This passage reports IC50 and EC50 results from ChEMBL document CHEMBL5500324, “The potential of marine-derived piperazine alkaloids: Sources, structures and bioactivities” (Eur J Med Chem, 2024).

pIC50: −log10 of the molar value. In brackets after ≈: the same amount, converted by molar mass. A value given as a limit tells only on which side of the number the result lay.

Assay [1] concerns P388. As to the kind of experiment: Cytotoxicity against mouse P388 cells assessed as reduction in cell viability by SRB assay. It counts as functional, cell-based. Background: The SRB assay estimates cell density from bound dye.
Assay [2] has as its system A549. As to the kind of experiment: Cytotoxicity against human A549 cells assessed as inhibition of cell growth. It counts as functional, cell-based.
For assay [3], the system named is P388. As to the kind of experiment: Cytotoxicity against mouse P388 cells assessed as inhibition of cell growth. It counts as functional, cell-based.
The subject of assay [4] is HT-29. As to the kind of experiment: Cytotoxicity against human HT-29 cells assessed as inhibition of cell growth. It counts as functional, cell-based.
Assay [5] deals with A549. As to the kind of experiment: Cytotoxicity against human A549 cells assessed as reduction in cell viability measured after 48 hrs by MTT assay. It counts as functional, cell-based. The conditions noted are these: A549, 48 h.
Assay [6] has as its system SK-MEL-28. As to the kind of experiment: Cytotoxicity against human SK-MEL-28 cells assessed as inhibition of cell growth. It is filed as functional, cell-based.
Assay [7] has as its system A549. As to the kind of experiment: Cytotoxicity against human A549 cells assessed as reduction in cell growth incubated for 72 hrs by SRB assay. It is filed as functional, cell-based. Conditions: A549, 72 h.
The test system of assay [8] is Bel-7402. As to the kind of experiment: Cytotoxicity against human Bel-7402 cells assessed as reduction in cell growth incubated for 72 hrs by SRB assay. It counts as functional, cell-based. Conditions: Bel-7402, 72 h.
The subject of assay [9] is HL-60. As to the kind of experiment: Cytotoxicity against human HL-60 cells assessed as reduction in cell growth incubated for 72 hrs by SRB assay. It counts as functional, cell-based. Conditions: HL-60, 72 h.
For assay [10], the system named is HT-29. As to the kind of experiment: Antiproliferative activity against human HT-29 cells assessed as reduction in cell viability incubated for 72 hrs by SRB assay. It counts as functional, cell-based. Conditions: HT-29, 72 h.
The subject of assay [11] is A549. As to the kind of experiment: Antiproliferative activity against human A549 cells assessed as reduction in cell viability incubated for 72 hrs by SRB assay. The conditions noted are these: A549, 72 h. It counts as functional, cell-based.
The subject of assay [12] is MDA-MB-231. As to the kind of experiment: Antiproliferative activity against human MDA-MB-231 cells assessed as reduction in cell viability incubated for 72 hrs by SRB assay. The conditions noted are these: MDA-MB-231, 72 h. It is filed as functional, cell-based.
For assay [13], the system named is A549. As to the kind of experiment: Cytotoxicity against human A549 cells assessed as inhibition of cell growth incubated for 48 hrs by MTT assay. It is filed as functional, cell-based. Conditions: A549, 48 h.
Assay [14] deals with HGC-27. As to the kind of experiment: Cytotoxicity against human HGC-27 cells assessed as reduction in cell viability. It counts as functional, cell-based.
Assay [15] relates to P388. As to the kind of experiment: Cytotoxicity against mouse P388 cells assessed as reduction in cell growth. It is filed as functional. The conditions noted are these: read-out: ED50 (the source's name).
Assay [16] relates to NCI-H460. As to the kind of experiment: Cytotoxicity against human NCI-H460 cells assessed as reduction in cell growth by MTT assay. It counts as functional, cell-based. For orientation: Tetrazolium dyes change colour on reduction, which living cells bring about.
The subject of assay [17] is HepG2. As to the kind of experiment: Cytotoxicity against human HepG2 cells assessed as reduction in cell growth by MTT assay. It is filed as functional, cell-based.
In assay [18] the test system is MCF7. As to the kind of experiment: Cytotoxicity against human MCF7 cells assessed as reduction in cell growth incubated for 48 hrs by MTT assay. It counts as functional, cell-based. The conditions noted are these: MCF7, 48 h.
The test system of assay [19] is HL-60. As to the kind of experiment: Cytotoxicity against human HL-60 cells assessed as reduction in cell viability. It counts as functional, cell-based.
Assay [20] concerns A-375. As to the kind of experiment: Cytotoxicity against human A-375 cells assessed as reduction in cell viability by CCK-8 assay. It counts as functional, cell-based.
Assay [21] concerns MKN-1. As to the kind of experiment: Antiproliferative activity against human MKN-1 cells assessed as reduction in cell viability measured for 48 hrs by CCK-8 assay. It is filed as functional, cell-based. The conditions noted are these: MKN-1, 48 h.
In assay [22] the test system is HeLa. As to the kind of experiment: Cytotoxicity against human HeLa cells assessed as reduction in cell growth measured after 72 hrs by MTT assay. It counts as functional, cell-based.
For assay [23], the system named is HeLa. As to the kind of experiment: Cytotoxicity against human HeLa cells assessed as reduction in cell growth measured after 24 hrs by MTT assay. It is filed as functional, cell-based.
For assay [24], the system named is MKN-1. As to the kind of experiment: Antiproliferative activity against human MKN-1 cells assessed as inhibition of cell proliferation by CCK8 assay. It counts as functional, cell-based.
For assay [25], the system named is MKN-1. As to the kind of experiment: Cytotoxicity against human MKN-1 cells assessed as reduction in cell viability. It is filed as functional, cell-based.

One may read the pIC50 as the negative decadic logarithm of the IC50, by convention in mol/L. One may read the IC50 as the concentration that inhibits the measured activity by half.

Consider `C=CC(C)(C)c1[nH]c2ccccc2c1/C=C1\NC(=O)[C@]2(C[C@H](C)C=C[C@@H]2CCc2c(O)cc(CC=C(C)C)c(O)c2C=O)NC1=O`, for which the pIC50 in assay [1] is 5.74.

Consider `COc1c(C)cc2c(c1O)[C@H]1[C@@H]3[C@@H]4SCC(=O)C(=O)OC[C@@H](c5c6c(c(C)c(OC(C)=O)c54)OCO6)N3[C@@H](O)[C@@H](C2)N1C`, for which the half-maximal inhibitory concentration (IC50) in [2] stood at 0.02 µg/mL (≈ 0.0326 µM); in assay [4], 0.025 µg/mL (≈ 0.0408 µM); in assay [5] it was 0.01 µg/mL (≈ 0.0163 µM); in assay [6], 0.025 µg/mL (≈ 0.0408 µM). The pIC50 in assay [3] was 5.00.

As for `C=CC(C)(C)[C@@]12C[C@@]3(OC)C(=O)N/C(=C/c4cn(C(C)(C)CC(C)=O)cn4)C(=O)N3[C@]1(C)Nc1ccccc12`, the negative logarithm of the IC50 (pIC50) in [7] was 4.37; in [8] it was less than 4.30; in assay [9], 4.44.

In the case of `CN1C[C@@H](c2c[nH]c3cc(Br)ccc23)N(C)C[C@@H]1c1c[nH]c2ccccc12`, the pIC50 in [10] is 5.32; in [11], 5.33; in [12], 5.12; in assay [13] it was 5.39.

Regarding `C=CC(C)(C)c1[nH]c2ccccc2c1/C=C1\NC(=O)[C@@H]2CCCN2C1=O`, the negative logarithm of the IC50 (pIC50) in assay [14] was 5.34.

On to `CN1C(=O)[C@@]23SS[C@]1(C)C(=O)N2[C@H]1Nc2ccccc2[C@@]1(c1c[nH]c2ccccc12)[C@@H]3O`, for which the EC50 in assay [15] was determined as 2.4 µg/mL (≈ 5.17 µM). In addition, the results for the pIC50 in assay [16], in assay [17] and in assay [18] were 6.64, 6.28 and 6.64, respectively.

Turning to `COc1ccc2c(c1)N[C@@]1(C2=O)[C@H](C=C(C)C)N2C(=O)[C@]3(O)CCCN3C(=O)[C@]2(O)[C@H]1O`, the pIC50 in [19] is 5.22.

As for `CC(C)C[C@@H]1NC(=O)[C@@H]2C[C@@]3([C@@]45C[C@H]6C(=O)N[C@@H](Cc7ccccc7)C(=O)N6[C@@H]4Nc4ccccc45)c4ccccc4N[C@H]3N2C1=O`, the pIC50 in assay [20] is 4.99.

Consider `C=CC(C)(C)c1[nH]c2cc(CC=C(C)C)ccc2c1/C=C1\NC(=O)[C@H](C)NC1=O`, for which, in assay [21], the negative logarithm of the IC50 (pIC50) was 5.34.

Regarding `CC(C)[C@H]1C(=O)N2[C@@H]3N4c5ccccc5[C@]3(C[C@@H]3[C@@]5(C)CCCC(C)(C)[C@@H]5CC[C@]34C)C[C@H]2C(=O)N1C`, the pIC50 in assay [22] was 4.78.

Consider `O=C1N[C@@H](C[C@@]2(O)c3ccccc3N3C(=O)C[C@@H](c4ccccc4)N[C@H]32)C(=O)N[C@H]1Cc1ccccc1`, for which the IC50 in assay [23] came out at 8.4 µg/mL (≈ 16.9 µM).

As for `C=CC(C)(C)c1[nH]c2ccccc2c1/C=c1\[nH]c(=O)c(=C)[nH]c1=O` [NEOECHINULIN B], the pIC50 was 4.68 in [24] and 5.34 in assay [25].
